Patent US7115612B2, “Arylsulfonamides as antiviral agents” (Bayer Aktiengesellschaft, priority 2001, dated 2006)

What was measured:
HCMV = assay: Anti-HCMV cytopathogenicity test; type: cell-based, human cytomegalovirus; conditions: for EC50: Human betaherpesvirus 5, 144 h, inhibition of CPE by 50% in HCMV-infected HELF cells, M.O.I. 0.001–0.002, 6 days; for SI HCMV: selectivity index = CC50 (HELF)/EC50 (HCMV)
Protocol: (§1) Anti-HCMV (Anti-Human Cytomegalovirus) and anti-MCMV (Anti-Murine Cytomegalovirus) cytopathogenicity tests: The test compounds were employed as 50 millimolar (mM) solutions in dimethyl sulphoxide (DMSO). Ganciclovir, foscarnet and cidofovir served as reference compounds. Following the addition of in each case 2 μl of the 50, 5, 0.5 and 0.05 mM DMSO stock solutions to in each case 98μ of cell culture medium in row […], in duplicate determinations, 1:2 dilutions with in each case 50 μl of medium were prepared up to row 11 of the 96-well plate. The wells in rows 1 and 12 each contained 50 μl of medium. 150 μl of a suspension of 1×10^4 cells (human lung fibroblasts [HELF]) (row 1=cell control) or, in rows 2-12, a mixture of HCMV-infected and non-infected HELF cells (M.O.I.=0.001-0.002), i.e. 1-2 infected cells per 1000 non-infected cells, were then pipetted into each of the wells. Row 12 (without substance) served as virus control. The final test concentrations were 250-0.0005 μM. The plates were incubated at 37° C./5% CO2 for 6 days, i.e. until all cells in the virus controls had been infected (100% cytopathogenic effect [CPE]). The wells were then fixed and stained by adding a mixture of Formalin and Giemsa Stain (30 minutes), washed with doubly distilled water and dried in a drying cabinet at 50° C. The plates were then evaluated visually using an overhead microscope (plaque multiplier from Technomara). From the test plates, the following data were determined: EC50 (HCMV)=substance concentration in μM which inhibits the CPE (cytopathic effect) by 50% compared to the untreated virus control; SI (selectivity index)=CC50 (HELF)/EC50 (HCMV).

[1] = Cytotoxicity on HELF cells in the anti-HCMV cytopathogenicity test; type: cell-based; conditions: human lung fibroblasts (HELF cells), 6 days incubation, visual evaluation
Protocol: as §1, with “The” for “Anti-HCMV (Anti-Human Cytomegalovirus) and anti-MCMV (Anti-Murine Cytomegalovirus) cytopathogenicity tests: The”, “CC50 (HELF)=substance” for “EC50 (HCMV)=substance”, “at which,” for “which inhibits the CPE (cytopathic effect) by 50%”, “cell control, no visible cytostatic effects on the cells were noticeable;” for “virus control; SI (selectivity index)=CC50 (HELF)/EC50 (HCMV).”

MCMV = assay: Anti-MCMV cytopathogenicity test; type: cell-based, murine cytomegalovirus; conditions: for EC50: Murid betaherpesvirus 1, 120 h, MCMV-infected 3T3 mouse cells, M.O.I. 0.05–0.1, 5 days; for SI MCMV: selectivity index, 3T3 CC50 / MCMV EC50
Protocol: Anti-HCMV (Anti-Human Cytomegalovirus) and anti-MCMV (Anti-Murine Cytomegalovirus) cytopathogenicity tests:
(§2) The test compounds were employed as 50 millimolar (mM) solutions in dimethyl sulphoxide (DMSO). Ganciclovir, foscarnet and cidofovir served as reference compounds. Following the addition of in each case 2 μl of the 50, 5, 0.5 and 0.05 mM DMSO stock solutions to in each case 98μ of cell culture medium in row 2 A-H, in duplicate determinations, 1:2 dilutions with in each case 50 μl of medium were prepared up to row 11 of the 96-well plate. The wells in rows 1 and 12 each contained 50 μl of medium. 150 μl of a suspension of 1×10^4 cells (human lung fibroblasts [HELF]) (row 1=cell control) or, in rows 2–12, a mixture of HCMV-infected and non-infected HELF cells (M.O.I.=0.001–0.002), i.e. 1–2 infected cells per 1000 non-infected cells, were then pipetted into each of the wells. Row 12 (without substance) served as virus control. The final test concentrations were 250–0.0005 μM. The plates were incubated at 37° C./5% CO2 for 6 days, i.e. until all cells in the virus controls had been infected (100% cytopathogenic effect [CPE]). The wells were then fixed and stained by adding a mixture of Formalin and Giemsa Stain (30 minutes), washed with doubly distilled water and dried in a drying cabinet at 50° C. The plates were then evaluated visually using an overhead microscope (plaque multiplier from Technomara).
(§3) Compared to the process described above for HCMV, the anti-MCMV test was carried out with the following changes: a cell-free virus suspension was mixed with a concentrated cell suspension (3T3 mouse cells) and incubated for 15 minutes for adsorption of the viruses, and the suspension was then diluted with medium to 1.3×10^5 cells/ml with a final multiplicity of infection (M.O.I.) of from 0.05–0.1, and in each case 150 μl were dispensed into the wells. The incubation time was 5 days.

[2] = Cytotoxicity on 3T3 cells in the anti-MCMV cytopathogenicity test; type: cell-based; conditions: mouse, 3T3 mouse cells, 5 days incubation
Protocol: as §2
CC50 (HELF)=substance concentration in μM at which, compared to the untreated cell control, no visible cytostatic effects on the cells were noticeable;
as §3

SMILES	EC50 (HCMV) [nM]	SI HCMV (HCMV)	CC50 at 6 days [1] [nM]	EC50 (MCMV) [nM]	SI MCMV (MCMV)	CC50 at 5 days [2] [nM]
CC1(C(=O)Nc2ccc(NS(=O)(=O)c3cccc(-c4nnc(-c5ccccn5)s4)c3)cc2)CC1 [Example 131, 1-Methyl-N-{4-[({3-[5-(2-pyridinyl)-1,3,4-thiadiazol-2-yl]phenyl}sulphonyl)amino]phenyl}cyclopropanecarboxamide]	20	>1555	> 28000	–	–	–
CC1(C(=O)Nc2cccc(NS(=O)(=O)c3ccc(-c4noc(-c5cccc(N)n5)n4)cc3)c2)CC1 [Example 134, N-{3-[({4-[5-(6-Amino-2-pyridinyl)-1,2,4-oxadiazol-3-yl]phenyl}sulphonyl)amino]-phenyl}-1-methylcyclopropanecarboxamide]	9	10444	94000	4.7	1617	8000
CC(=O)Nc1cccc(-c2nc(-c3ccc(S(=O)(=O)Nc4cccc(NC(=O)C5(C)CC5)c4)cc3)no2)n1 [Example 132, N-(3-{[(4-{5-[6-(Acetylamino)-2-pyridinyl]-1,2,4-oxadiazol-3-yl}phenyl)sulphonyl]-amino}phenyl)-1-methylcyclopropanecarboxamide]	6	7833	47000	3	767	2300
Cc1nc(-c2nc(-c3ccc(S(=O)(=O)Nc4cccc(NC(=O)C5(C)CC5)c4)cc3)no2)cs1 [Example 11, 1-Methyl-N-{3-[({4-[5-(2-methyl-1,3-thiazol-4-yl)-1,2,4-oxadiazol-3-yl]phenyl}-sulphonyl)amino]phenyl}cyclopropanecarboxamide]	15	>1040	> 16000	2	>5850	> 12000
CC1(C(=O)Nc2cccc(NS(=O)(=O)c3ccc(-c4noc(-c5nccc6ccccc56)n4)cc3)c2)CC1 [Example 10, N-{3-[({4-[5-(1-Isoquinolinyl)-1,2,4-oxadiazol-3-yl]phenyl}sulphonyl)-amino]phenyl}-1-methylcyclopropanecarboxamide]	8	>488	> 3900	7	>975	> 7800
CC1(C(=O)Nc2cccc(NS(=O)(=O)c3ccc(-c4noc(-c5csc(N)n5)n4)cc3)c2)CC1 [Example 4]	10	>6300	> 63000	15	733	11000
CN(C)c1cccc(-c2nc(-c3ccc(S(=O)(=O)Nc4cccc(NC(=O)C5(C)CC5)c4)cc3)no2)c1 [Example 2, N-(3-{[(4-{5-[3-(Dimethylamino)phenyl]-1,2,4-oxadiazol-3-yl}phenyl)sulphonyl]-amino}phenyl)-1-methylcyclopropanecarboxamide]	50	<320	< 16000	45	20	900
CC(C)(CF)C(=O)Nc1cccc(NS(=O)(=O)c2ccc(-c3noc(-c4cccc(N)n4)n3)cc2)c1 [Example 135, N-{3-[({4-[5-(6-Amino-2-pyridinyl)-1,2,4-oxadiazol-3-yl]phenyl}sulphonyl)amino]-phenyl}-3-fluoro-2,2-dimethylpropanamide]	5.2	9039	47000	11	273	3000
CC(C)(CF)C(=O)Nc1ccc(NS(=O)(=O)c2cccc(-c3noc(-c4ccccc4)n3)c2)cc1 [Example 13, 3-Fluoro-2,2-dimethyl-N-[4-({[3-(5-phenyl-1,2,4-oxadiazol-3-yl)phenyl]sulphonyl}-amino)phenyl]propanamide]	40	<200	< 8000	30	<533	< 16000
CC1(C(=O)Nc2cccc(NS(=O)(=O)c3ccc(-c4noc(-c5cscn5)n4)cc3)c2)CC1 [Example 7, 1-Methyl-N-{3-[({4-[5-(1,3-thiazol-4-yl)-1,2,4-oxadiazol-3-yl]phenyl}sulphonyl)-amino]phenyl}cyclopropanecarboxamide]	25	1880	47000	25	480	12000
CC1(C(=O)Nc2cccc(NS(=O)(=O)c3ccc(-c4noc(-c5csc(CN)n5)n4)cc3)c2)CC1 [Example 12, N-(3-{[(4-{5-[2-(Aminomethyl)-1,3-thiazol-4-yl]-1,2,4-oxadiazol-3-yl}phenyl)-sulphonyl]amino}phenyl)-1-methylcyclopropanecarboxamide]	58	241	14000	58	121	7000
Cc1cc(-c2nc(-c3ccc(S(=O)(=O)Nc4cccc(NC(=O)C5(C)CC5)c4)cc3)no2)[nH]n1 [Example 6, 1-Methyl-N-{3-[({4-[5-(3-methyl-1H-pyrazol-5-yl)-1,2,4-oxadiazol-3-yl]phenyl}-sulphonyl)amino]phenyl}cyclopropanecarboxamide]	20	2053	39000	41	71	2900
Cc1cc(-c2nc(-c3ccc(S(=O)(=O)Nc4cccc(NC(=O)C5(C)CC5)c4)cc3)no2)nn1C [Example 8, N-{3-[({4-[5-(1,5-Dimethyl-1H-pyrazol-3-yl)-1,2,4-oxadiazol-3-yl]phenyl}-sulphonyl)amino]phenyl}-1-methylcyclopropanecarboxamide]	20	>110	> 2200	24	>163	> 3900
